What all share (format): cell-based
The target in one test is hGLP-1R (Homo sapiens, UniProt P43220). The experiment in a line: Functional cAMP formation (HTRF) in HEK-293 clonal cells expressing hGLP-1R, 0.1% bovine casein, without or with 1.0% human serum albumin. Also on record: expressed in transfected cells. As to conditions: for EC50: geometric mean; for Emax: read-out: hGLP-1R Emax, % ± SEM. The gist of the method:
(§1)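 Readings of the HTRF 665/620 nm ratio, which falls as cAMP rises, were converted to nM cAMP using a standard curve after 30 min peptide exposure at 37° C.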

For the next test, the target named is T1, hGIPR (Homo sapiens, UniProt P48546).
T1 construct: expressed in transfected cells
T1 sequence (P48546 22-466): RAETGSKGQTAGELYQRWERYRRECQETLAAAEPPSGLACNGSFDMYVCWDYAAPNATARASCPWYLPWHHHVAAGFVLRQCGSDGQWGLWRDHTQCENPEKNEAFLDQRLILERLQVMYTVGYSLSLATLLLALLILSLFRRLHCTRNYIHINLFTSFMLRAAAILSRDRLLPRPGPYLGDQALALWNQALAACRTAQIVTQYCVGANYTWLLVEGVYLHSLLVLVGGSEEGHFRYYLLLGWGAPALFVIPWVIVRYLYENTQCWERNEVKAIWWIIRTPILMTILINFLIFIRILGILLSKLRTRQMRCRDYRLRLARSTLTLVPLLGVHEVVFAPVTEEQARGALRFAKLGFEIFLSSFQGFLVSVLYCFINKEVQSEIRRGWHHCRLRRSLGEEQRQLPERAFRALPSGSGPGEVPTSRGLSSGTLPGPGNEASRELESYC
The test can be described thus: Functional cAMP formation (HTRF) in HEK-293 clonal cells expressing hGIPR, 0.1% bovine casein, without or with 1.0% human serum albumin. As to conditions: for EC50: geometric mean. The gist of the method:
as §1
A general note: Cyclic AMP is a second messenger, typically raised through Gs and lowered through Gi signalling.

A further test deals with T2, hGCGR (Homo sapiens, UniProt P47871).
T2 construct: expressed in transfected cells
The experiment in a line: Functional cAMP formation (HTRF) in HEK-293 clonal cells expressing hGCGR, 0.1% bovine casein, without or with 1.0% human serum albumin. In short, it runs like this:
as §1

[1] abbreviates: HEK293, percent of maximal response to GLP-1(7-36)NH2, 37° C., 0.1% bovine casein, arithmetic mean.
Where [2] appears, read: HEK293, 0.1% bovine casein and 1.0% human serum albumin, 37° C., percent of maximal response to GIP(1-42)NH2, read-out: hGIPR Emax, % ± SEM.
Setting [3] is: HEK293, percent of maximal response to GIP(1-42)NH2, 37° C., 0.1% bovine casein, arithmetic mean, read-out: hGIPR Emax, % ± SEM.
[4] abbreviates: 0.1% bovine casein and 1.0% human serum albumin, 37° C., geometric mean, read-out: hGCGR EC50, nM (SEM, n).
The mark [5] stands for this setting: cAMP, incubated at 37° C., 0.1% bovine casein (no human serum albumin), geometric mean, read-out: hGCGR EC50, nM (SEM, n).

Like-named read-outs stand apart in the source and are kept apart here.

T2 sequence (P47871 26-477): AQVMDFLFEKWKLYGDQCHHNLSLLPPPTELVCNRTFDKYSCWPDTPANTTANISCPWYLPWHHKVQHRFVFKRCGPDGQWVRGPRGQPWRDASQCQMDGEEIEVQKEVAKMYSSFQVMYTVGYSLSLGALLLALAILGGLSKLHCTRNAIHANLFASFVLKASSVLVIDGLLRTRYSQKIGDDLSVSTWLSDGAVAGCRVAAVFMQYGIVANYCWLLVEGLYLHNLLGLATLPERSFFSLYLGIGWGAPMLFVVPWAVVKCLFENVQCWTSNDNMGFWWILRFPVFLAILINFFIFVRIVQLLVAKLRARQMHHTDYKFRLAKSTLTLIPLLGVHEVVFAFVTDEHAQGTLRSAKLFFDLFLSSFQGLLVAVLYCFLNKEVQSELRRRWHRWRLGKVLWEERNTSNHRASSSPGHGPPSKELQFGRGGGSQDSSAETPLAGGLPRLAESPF
hGLP-1R, sequence (P43220 24-463): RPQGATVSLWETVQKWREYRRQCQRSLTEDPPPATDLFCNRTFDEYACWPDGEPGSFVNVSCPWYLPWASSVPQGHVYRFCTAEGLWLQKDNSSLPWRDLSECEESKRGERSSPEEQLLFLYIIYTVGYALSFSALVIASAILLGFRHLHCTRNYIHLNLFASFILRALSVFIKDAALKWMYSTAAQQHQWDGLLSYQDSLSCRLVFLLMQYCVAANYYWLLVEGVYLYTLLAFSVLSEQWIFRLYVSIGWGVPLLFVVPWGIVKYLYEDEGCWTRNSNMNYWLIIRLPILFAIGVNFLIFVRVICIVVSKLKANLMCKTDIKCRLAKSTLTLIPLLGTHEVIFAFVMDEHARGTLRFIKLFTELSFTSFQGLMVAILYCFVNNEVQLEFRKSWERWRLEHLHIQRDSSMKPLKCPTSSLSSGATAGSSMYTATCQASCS

By EC50 is commonly meant the concentration needed to bring the measured effect to its halfway point. As usually defined, the Emax is the size of the effect at its maximum, as opposed to the concentration needed. Take `CC[C@H](C)[C@H](NC(=O)[C@H](CC(C)C)NC(=O)[C@](C)(Cc1ccc(O)cc1)NC(=O)[C@@H](CCC(=O)O)NC(=O)[C@@H](NC(=O)[C@H](Cc1ccccc1)NC(=O)[C@H](CCC(=O)O)NC(=O)C(C)(C)NC(=O)[C@H](CCC(N)=O)NC(=O)[C@H](C)NC(=O)[C@H](CCCCNC(=O)COCCOCCNC(=O)COCCOCCNC(=O)CCCCCCCCCCCCC(=O)O)NC(=O)[C@H](CCCN)NC(=O)[C@H](CC(=O)O)NC(=O)[C@H](CC(C)C)NC(=O)[C@](C)(CC(C)C)NC(=O)[C@@H](NC(=O)C(C)(C)NC(=O)[C@H](Cc1ccncc1)NC(=O)[C@H](CC(=O)O)NC(=O)[C@H](CO)NC(=O)[C@@H](NC(=O)[C@](C)(Cc1ccccc1F)NC(=O)[C@@H](NC(=O)CNC(=O)[C@H](CCC(=O)O)NC(=O)C(C)(C)NC(=O)[C@@H](N)Cc1ccc(O)cc1)[C@@H](C)O)[C@@H](C)O)[C@@H](C)CC)[C@@H](C)CC)C(=O)N[C@@H](CCCCNC(=O)COCCOCCNC(=O)COCCOCCNC(=O)CCCCCCCCCCCCC(=O)O)C(=O)NCC(=O)NCC(=O)N1CCC[C@H]1C(=O)N[C@@H](CO)C(=O)N[C@@H](CO)C(=O)NCC(=O)N[C@@H](C)C(=O)N1CCC[C@H]1C(=O)N1CCC[C@H]1C(=O)N1CCC[C@H]1C(=O)N[C@@H](CO)C(N)=O` [Example 387]: the EC50 is 0.32 nM at hGLP-1R (cAMP, 37° C., 0.1% bovine casein (no human serum albumin), read-out: hGLP-1R EC50, nM (SEM, n)); 0.0137 nM on hGIPR (cAMP, 37° C., 0.1% bovine casein (no human serum albumin), read-out: hGIPR EC50, nM (SEM, n)); over 9950 nM on hGCGR (cAMP, 37° C., 0.1% bovine casein (no human serum albumin), geometric mean, read-out: hGCGR EC50, nM (SEM, n)); over 9950 nM on hGCGR (cAMP, 37° C., 0.1% bovine casein and 1.0% human serum albumin, geometric mean (SEM, n), read-out: hGCGR EC50, nM (SEM, n)). Also, on hGIPR (HEK293, cAMP, 37° C., 0.1% bovine casein and 1.0% human serum albumin, percent of maximal response to GIP(1-42)NH2, read-out: hGIPR Emax, % ± SEM), the Emax came out at 93%.
`CC[C@H](C)[C@H](NC(=O)[C@H](CC(C)C)NC(=O)[C@](C)(Cc1ccc(O)cc1)NC(=O)[C@@H](CCC(=O)O)NC(=O)[C@@H](NC(=O)[C@](C)(Cc1ccccc1F)NC(=O)[C@H](CCC(=O)O)NC(=O)C(C)(C)NC(=O)[C@H](CCC(N)=O)NC(=O)[C@H](C)NC(=O)[C@H](CCCCNC(=O)COCCOCCNC(=O)COCCOCCNC(=O)CC[C@H](NC(=O)CCCCCCCCCCCCC(=O)O)C(=O)O)NC(=O)[C@H](CCCN)NC(=O)[C@H](CC(=O)O)NC(=O)[C@H](CC(C)C)NC(=O)[C@](C)(CC(C)C)NC(=O)[C@@H](NC(=O)[C@H](CO)NC(=O)[C@H](Cc1ccncc1)NC(=O)[C@H](CC(=O)O)NC(=O)[C@H](CO)NC(=O)[C@@H](NC(=O)[C@](C)(Cc1ccccc1F)NC(=O)[C@@H](NC(=O)CNC(=O)[C@H](CCC(=O)O)NC(=O)C(C)(C)NC(=O)[C@@H](N)Cc1ccc(O)cc1)[C@@H](C)O)[C@@H](C)O)[C@@H](C)CC)[C@@H](C)CC)C(=O)N[C@@H](CCC(=O)O)C(=O)NCC(=O)NCC(=O)N[C@@H](CCCCNC(=O)COCCOCCNC(=O)COCCOCCNC(=O)CC[C@H](NC(=O)CCCCCCCCCCCCC(=O)O)C(=O)O)C(=O)N[C@@H](CO)C(=O)N[C@@H](CO)C(=O)NCC(=O)N[C@@H](C)C(=O)N1CCC[C@H]1C(=O)N1CCC[C@H]1C(=O)N1CCC[C@H]1C(=O)N[C@@H](CO)C(N)=O` [Example 88]: the figures for the Emax at hGLP-1R (setting [1]), on hGIPR (setting [2]) and at hGIPR (setting [3]) were 97.1%, 80.3% and 85.1%, respectively. In addition, the EC50 was 0.591 nM at hGIPR (0.1% bovine casein and 1.0% human serum albumin, 37° C., read-out: hGIPR EC50, nM (SEM, n)); over 9950 nM at hGCGR (setting [4]); over 9950 nM on hGCGR (setting [5]).
In the case of `CC[C@H](C)[C@H](NC(=O)[C@H](CC(C)C)NC(=O)[C@](C)(Cc1ccc(O)cc1)NC(=O)[C@@H](CCC(=O)O)NC(=O)[C@@H](NC(=O)[C@H](Cc1ccccc1)NC(=O)[C@H](CCCCNC(=O)COCCOCCNC(=O)COCCOCCNC(=O)CC[C@H](NC(=O)CCCCCCCCCOc1ccc(C(=O)O)cc1)C(=O)O)NC(=O)C(C)(C)NC(=O)[C@H](CCC(N)=O)NC(=O)[C@H](C)NC(=O)[C@H](CCCCNC(=O)COCCOCCNC(=O)COCCOCCNC(=O)CC[C@H](NC(=O)CCCCCCCCCOc1ccc(C(=O)O)cc1)C(=O)O)NC(=O)[C@H](CCCN)NC(=O)[C@H](CC(=O)O)NC(=O)[C@H](CC(C)C)NC(=O)[C@](C)(CC(C)C)NC(=O)[C@@H](NC(=O)C(C)(C)NC(=O)[C@H](Cc1ccncc1)NC(=O)[C@H](CC(=O)O)NC(=O)[C@H](CO)NC(=O)[C@@H](NC(=O)[C@](C)(Cc1ccccc1F)NC(=O)[C@@H](NC(=O)CNC(=O)[C@H](CCC(=O)O)NC(=O)C(C)(C)NC(=O)[C@@H](N)Cc1ccc(O)cc1)[C@@H](C)O)[C@@H](C)O)[C@@H](C)CC)[C@@H](C)CC)C(=O)N[C@@H](CCCN)C(=O)NCC(=O)NCC(=O)N1CCC[C@H]1C(=O)N[C@@H](CO)C(=O)N[C@@H](CO)C(=O)NCC(=O)N[C@@H](C)C(=O)N1CCC[C@H]1C(=O)N1CCC[C@H]1C(=O)N1CCC[C@H]1C(=O)N[C@@H](CO)C(N)=O` [Example 408], the EC50 is 0.227 nM at hGLP-1R (hGLP-1R EC50, nM (SEM, n), cAMP, 37° C., 0.1% bovine casein (no human serum albumin)); 0.00888 nM on hGIPR (hGIPR EC50, nM (SEM, n), cAMP, 37° C., 0.1% bovine casein (no human serum albumin)); over 9950 nM at hGCGR (hGCGR EC50, nM (SEM, n), cAMP, 37° C., 0.1% bovine casein (no human serum albumin), geometric mean); over 9950 nM on hGCGR (hGCGR EC50, nM (SEM, n), cAMP, 37° C., 0.1% bovine casein and 1.0% human serum albumin, geometric mean (SEM, n)). Further, the Emax on hGIPR (HEK293, read-out: hGIPR Emax, % ± SEM, cAMP, 37° C., 0.1% bovine casein and 1.0% human serum albumin, percent of maximal response to GIP(1-42)NH2) amounted to 84.4%.
As for `CC[C@H](C)[C@H](NC(=O)[C@H](CCCN)NC(=O)[C@H](CC(=O)O)NC(=O)[C@H](CC(C)C)NC(=O)[C@](C)(CC(C)C)NC(=O)[C@@H](NC(=O)[C@](C)(CO)NC(=O)[C@H](Cc1ccncc1)NC(=O)[C@H](CC(=O)O)NC(=O)[C@H](CO)NC(=O)[C@@H](NC(=O)[C@](C)(Cc1ccccc1F)NC(=O)[C@@H](NC(=O)CNC(=O)[C@H](CCC(=O)O)NC(=O)C(C)(C)NC(=O)[C@@H](N)Cc1ccc(O)cc1)[C@@H](C)O)[C@@H](C)O)[C@@H](C)CC)C(=O)N[C@@H](C)C(=O)N[C@@H](CCC(N)=O)C(=O)NC(C)(C)C(=O)N[C@@H](CCC(=O)O)C(=O)N[C@@H](Cc1ccccc1)C(=O)N[C@H](C(=O)N[C@@H](CCCCNC(=O)COCCOCCNC(=O)COCCOCCNC(=O)CC[C@H](NC(=O)CCCCCCCCCCCCC(=O)O)C(=O)O)C(=O)N[C@@](C)(Cc1ccc(O)cc1)C(=O)N[C@@H](CC(C)C)C(=O)N[C@H](C(=O)N[C@@H](CCCCNC(=O)COCCOCCNC(=O)COCCOCCNC(=O)CC[C@H](NC(=O)CCCCCCCCCCCCC(=O)O)C(=O)O)C(=O)NCC(=O)NCC(=O)N1CCC[C@H]1C(=O)N[C@@H](CO)C(=O)N[C@@H](CO)C(=O)NCC(=O)N[C@@H](C)C(=O)N1CCC[C@H]1C(=O)N1CCC[C@H]1C(=O)N1CCC[C@H]1C(=O)N[C@@H](CO)C(N)=O)[C@@H](C)CC)[C@@H](C)CC` [Example 216], the EC50 on hGLP-1R (0.1% bovine casein and 1.0% human serum albumin, 37° C., read-out: hGLP-1R EC50, nM (SEM, n)) is 32.3 nM; at hGLP-1R (cAMP, incubated at 37° C., 0.1% bovine casein (no human serum albumin), read-out: hGLP-1R EC50, nM (SEM, n)) it was 0.384 nM; on hGIPR (cAMP, incubated at 37° C., 0.1% bovine casein (no human serum albumin), read-out: hGIPR EC50, nM (SEM, n)), 0.0287 nM; at hGCGR (setting [4]) it was over 9950 nM; on hGCGR (setting [5]), over 9950 nM. Moreover, the Emax was found to be 117% at hGLP-1R (HEK293, 0.1% bovine casein and 1.0% human serum albumin, 37° C., percent of maximal response to GLP-1(7-36)NH2); 93.6% at hGLP-1R (setting [1]); 63.4% on hGIPR (setting [2]); 88.5% at hGIPR (setting [3]).
